The test deals with T1, Recombinant human Met (c-Met) (Homo sapiens, UniProt P08581).
T1 construct: purchased Invitrogen PV3143
Kind of test: Inhibition of c-Met kinase activity using Transcreener FP assay. The format is biochemical. Particulars: Poly E4Y substrate, 28° C. 45 min, read-out: IC50, inhibition of c-Met kinase activity.

SMILES strings stand for the structures.

The source of these data is US11896592B2, “Certain triazolopyridines and triazolopyrazines, compositions thereof and methods of use therefor” (Hutchison Medipharma Limited, priority 2009, dated 2024).

T1 sequence (P08581 956-1390 limits assumed): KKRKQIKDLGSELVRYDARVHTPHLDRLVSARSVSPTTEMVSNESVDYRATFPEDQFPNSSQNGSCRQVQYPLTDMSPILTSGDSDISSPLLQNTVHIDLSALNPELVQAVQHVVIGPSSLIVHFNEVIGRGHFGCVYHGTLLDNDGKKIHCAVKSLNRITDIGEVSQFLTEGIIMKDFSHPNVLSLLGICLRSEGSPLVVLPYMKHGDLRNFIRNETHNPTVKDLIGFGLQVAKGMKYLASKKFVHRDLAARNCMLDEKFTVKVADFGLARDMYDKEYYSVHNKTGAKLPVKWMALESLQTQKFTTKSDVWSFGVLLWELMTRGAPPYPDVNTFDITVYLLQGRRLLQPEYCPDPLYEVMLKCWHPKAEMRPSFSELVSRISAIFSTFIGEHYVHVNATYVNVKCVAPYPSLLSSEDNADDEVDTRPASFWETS

With `CC(=O)Nc1cc(-c2cnn(C)c2)nc2c1nnn2Cc1ccc2ncccc2c1` [Compound 261, N-(5-(1-methyl-1H-pyrazol-4-yl)-3-(quinolin-6-ylmethyl)-3H-[1,2,3]triazolo[4,5-b]pyridin-7-yl)acetamide], the IC50 was 100 to 1000 nM.

`c1cnc2ccc(Cn3nnc4ncc(Nc5ccnc(O[C@H]6CCOC6)c5)nc43)cc2c1` [Compound 217]: the IC50 was 1 to 100 nM.

With `COCCNc1ccnc(Nc2cnc3nnn(Cc4ccc5ncccc5c4)c3n2)c1` [Compound 204], the IC50 was in the range of 100 to 1000 nM.

In the case of `N#Cc1cc(Nc2ccc3nnn(Cc4ccc5ncccc5c4)c3n2)ccn1` [Compound 215], the IC50 fell in the range of 1 to 100 nM.

For the molecule `FC(F)(F)Cn1cc(-c2cnc3nnn(Cc4ccn5nccc5n4)c3n2)cn1` [Compound 293], the IC50 is 100 to 1000 nM.

`COc1cncc(Nc2cnc3nnn(Cc4ccc5ncccc5c4)c3n2)c1` [Compound 156]: the IC50 was in the range of 1 to 100 nM.

On to `CN(c1ccnc(C#N)c1)c1cnc2nnn(Cc3ccc4ncccc4c3)c2n1` [Compound 239], for which the IC50 lay in the range of 1 to 100 nM.

For the molecule `c1cnc2ccc(Cn3nnc4ccc(-n5cccn5)nc43)cc2c1` [Compound 80], the IC50 lay in the range of 100 to 1000 nM.

As to `COCc1cnc2ccc([C@@H](C)n3nnc4ncc(-c5cnn(C)c5)nc43)cn12` [Compound 325], the IC50 was 1 to 100 nM.

Regarding `CNc1ccc(-c2ccc3nnn(Cc4ccc5ncccc5c4)c3n2)cn1` [Compound 76], the IC50 fell in the range of 1 to 100 nM.

On to `Cn1ccc(Nc2cnc3nnn(Cc4ccc5ncccc5c4)c3n2)n1` [Compound 152, N-(1-methyl-1H-pyrazol-3-yl)-1-(quinolin-6-ylmethyl)-1H-[1,2,3]triazolo-[4,5-b]pyrazin-6-amine], for which the IC50 was 1 to 100 nM.

As to `OCCn1cc(-c2cnc3nnn(Cc4ccn5ncc(CO)c5c4)c3n2)cn1` [Compound 313], the IC50 is 1 to 100 nM.

As for `N#CCn1cc(-c2cnc3nnn(Cc4cc5[nH]ncc5s4)c3n2)cn1` [Compound 27], the IC50 is 1 to 100 nM.

`COc1cc(Nc2ccc3nnn(Cc4ccc5ncccc5c4)c3n2)ccn1` [Compound 179]: the IC50 lay within 1 to 100 nM.

`CCn1cc(-c2cnc3nnn(Cc4cc5[nH]ncc5s4)c3n2)cn1` [Compound 25]: the IC50 lay within 1 to 100 nM.

With `Cc1cccc(Nc2ccc3nnn(Cc4ccc5ncccc5c4)c3n2)n1` [Compound 182], the IC50 fell in the range of 1 to 100 nM.

For the molecule `Cn1cc(-c2cnc3nnn(Cc4ccc5ncsc5c4)c3n2)cn1` [Compound 11], the IC50 fell in the range of 1 to 100 nM.

On to `CCn1cc(-c2cnc3nnn(Cc4n[nH]c5ncccc45)c3n2)cn1` [Compound 49], for which the IC50 lay within 1 to 100 nM.

As to `c1cnc2ccc(Cn3nnc4ccc(-c5cnn(C6CCNCC6)c5)nc43)cc2c1` [Compound 94], the IC50 lay in the range of 100 to 1000 nM.

Take `c1cncc(Nc2cnc3nnn(Cc4ccc5ncccc5c4)c3n2)c1` [Compound 212]: the IC50 was in the range of 1 to 100 nM.

For the molecule `COCCn1cc(-c2cnc3nnn(Cc4cc5[nH]ncc5s4)c3n2)cn1` [Compound 45], the IC50 is 1 to 100 nM.

For `CC(c1ccc2ncccc2c1)n1nnc2ccc(-c3cnn(CCO)c3)nc21` (racemic) [Compound 332], the IC50 fell in the range of 1 to 100 nM.

Regarding `COCCOc1cccc(Nc2cnc3nnn(Cc4ccc5ncccc5c4)c3n2)c1` [Compound 202], the IC50 lay within 1 to 100 nM.

As to `COc1ccc(-c2cnc3nnn(Cc4ccc5nccn5c4)c3n2)cn1` [Compound 276], the IC50 lay within 1 to 100 nM.

On to `c1cn2cc(Cn3nnc4ncc(-c5cnn(C6CCNCC6)c5)nc43)ccc2n1` [Compound 46], for which the IC50 lay in the range of 1 to 100 nM.

As for `OCCn1cc(-c2cnc3nnn(Cc4ccc5ncsc5c4)c3n2)cn1` [Compound 12], the IC50 was 1 to 100 nM.

`CCn1cc(-c2cnc3nnn(Cc4ccc5nccn5c4)c3n2)cn1` [Compound 8]: the IC50 lay in the range of 1 to 100 nM.

`N#Cc1cc(Nc2cnc3nnn(Cc4ccc5ncccc5c4)c3n2)ccn1` [Compound 190]: the concentration for half-maximal inhibition (IC50) lay in the range of 1 to 100 nM.

For the molecule `CNCc1cnc2ccc(Cn3nnc4ncc(-c5cnn(C)c5)nc43)cn12` [Compound 327, N-methyl-1-(6-((6-(1-methyl-1H-pyrazol-4-yl)-1H-[1,2,3]triazolo[4,5-b]pyrazin-1-yl)methyl)imidazo[1,2-a]pyridin-3-yl)methanamine], the IC50 was 1 to 100 nM.

On to `c1cnc2ccc(Cn3nnc4ncc(Nc5ccnc(O[C@@H]6CCOC6)c5)nc43)cc2c1` [Compound 218], for which the IC50 fell in the range of 1 to 100 nM.

Consider `Nc1ccc(-c2ccc3nnn(Cc4ccc5ncccc5c4)c3n2)cn1` [Compound 62], for which the IC50 lay in the range of 1 to 100 nM.

Turning to `FC(F)(F)Cn1cc(-c2cnc3nnn(Cc4ccc5ncnn5c4)c3n2)cn1` [Compound 52], the IC50 lay within 1 to 100 nM.

Consider `c1cnc2ccc(Cn3nnc4ccc(Nc5ccncc5)nc43)cc2c1` [Compound 236], for which the half-inhibitory concentration (IC50) is 100 to 1000 nM.

For the molecule `c1n[nH]cc1-c1cnc2nnn(Cc3cc4[nH]ncc4s3)c2n1` [Compound 44], the IC50 fell in the range of 1 to 100 nM.

On to `OCCn1cc(-c2ccc3nnn(Cc4ccc5nccn5c4)c3n2)cn1` [Compound 134], for which the IC50 lay within 1 to 100 nM.

`CC(O)Cn1cc(-c2ccc3nnn(Cc4ccc5ncccc5c4)c3n2)cn1` (centres unmarked) [Compound 100]: the IC50 was 100 to 1000 nM.

As to `Cn1cc(-c2cnc3nnn(Cc4ccc5ncc(Br)n5c4)c3n2)cn1` [Compound 278, 1-((3-Bromoimidazo[1,2-a]pyridin-6-yl)methyl)-6-(1-methyl-1H-pyrazol-4-yl)-1H-[1,2,3]triazolo[4,5-b]pyrazine], the IC50 fell in the range of 1 to 100 nM.

Turning to `COCCNc1ccc(-c2ccc3nnn(Cc4ccc5ncccc5c4)c3n2)cn1` [Compound 82], the IC50 lay within 1 to 100 nM.

For `CS(=O)(=O)Nc1ccc(-c2ccc3nnn(Cc4ccc5ncccc5c4)c3n2)cc1` [Compound 84], the IC50 is 1 to 100 nM.

As for `c1cc(Nc2cnc3nnn(Cc4ccc5ncccc5c4)c3n2)nc(N2CCOCC2)c1` [Compound 166], the concentration for half-maximal inhibition (IC50) fell in the range of 1 to 100 nM.

Turning to `c1cnc2ccc(Cn3nnc4ncc(Nc5ccc(N6CCOCC6)cn5)nc43)cc2c1` [Compound 165], the IC50 is 1 to 100 nM.

`c1cnc2ccc(Cn3nnc4ccc(OC5CCOCC5)nc43)cc2c1` [Compound 249]: the IC50 was 100 to 1000 nM.

Consider `c1cnc2ccc(Cn3nnc4ccc(-c5cnn(C6CCOCC6)c5)nc43)cc2c1` [Compound 118], for which the IC50 lay within 100 to 1000 nM.

On to `FC(F)(F)Cn1cc(-c2ccc3nnn(Cc4ccc5nccn5c4)c3n2)cn1` [Compound 141], for which the IC50 was in the range of 1 to 100 nM.

For `c1nn(C2CNC2)cc1-c1cnc2nnn(Cc3cc4[nH]ncc4s3)c2n1` [Compound 283], the IC50 lay within 1 to 100 nM.

For `OCc1ccc(-c2ccc3nnn(Cc4ccc5ncccc5c4)c3n2)s1` [Compound 104], the concentration for half-maximal inhibition (IC50) fell in the range of 1 to 100 nM.

As for `Cn1cc(-c2ccc3nnn(Cc4ccc5ncnn5c4)c3n2)cn1` [Compound 120], the IC50 lay in the range of 100 to 1000 nM.

With `CCn1cc(-c2ccc3nnn(Cc4ccc5nccn5c4)c3n2)cn1` [Compound 135], the IC50 was 1 to 100 nM.

For `c1cnc2ccc(Cn3nnc4ncc(Nc5ccnc(NC6CCOC6)c5)nc43)cc2c1` (centres unmarked) [Compound 222], the IC50 was 1 to 100 nM.

For the molecule `OCCn1cc(-c2cnc3nnn(Cc4cc5cccnc5s4)c3n2)cn1` [Compound 5], the IC50 is 100 to 1000 nM.

`N#Cc1ccc(-c2ccc3nnn(Cc4ccc5ncccc5c4)c3n2)s1` [Compound 102]: the IC50 was 1 to 100 nM.

As to `CS(=O)(=O)n1cc(-c2ccc3nnn(Cc4ccc5ncccc5c4)c3n2)cn1` [Compound 150], the IC50 fell in the range of 1 to 100 nM.

For the molecule `CCn1cc(-c2cnc3nnn(Cc4csc5ncccc45)c3n2)cn1` [Compound 41], the IC50 fell in the range of 100 to 1000 nM.

On to `N#Cc1ccnc(Nc2cnc3nnn(Cc4ccc5ncccc5c4)c3n2)c1` [Compound 223], for which the IC50 fell in the range of 1 to 100 nM.

As to `CN1CC[C@H](Nc2cc(Nc3cnc4nnn(Cc5ccc6ncccc6c5)c4n3)ccn2)C1` [Compound 229], the IC50 lay in the range of 1 to 100 nM.

As to `Clc1ccnc(Nc2cnc3nnn(Cc4ccc5ncccc5c4)c3n2)c1` [Compound 153], the IC50 was in the range of 1 to 100 nM.

With `COCc1cnc2ccc(Cn3nnc4ncc(-c5cnn(CCO)c5)nc43)cn12` [Compound 309], the IC50 was 1 to 100 nM.

In the case of `FC(F)(F)Cn1cc(-c2ccc3nnn(Cc4ccc5ncccc5c4)c3n2)cn1` [Compound 147], the IC50 was 1 to 100 nM.

On to `OCCn1cc(-c2ccc3nnn(Cc4cc5cccnc5cc4F)c3n2)cn1` [Compound 128], for which the IC50 lay in the range of 1 to 100 nM.

Consider `Cc1cccc(Nc2cnc3nnn(Cc4ccc5ncccc5c4)c3n2)n1` [Compound 157], for which the IC50 was in the range of 1 to 100 nM.

For the molecule `CNC(=O)c1ccc(-c2ccc3nnn(Cc4ccc5ncccc5c4)c3n2)cn1` [Compound 83], the IC50 is 1 to 100 nM.

For the molecule `c1ccc(Oc2cnc3nnn(Cc4ccc5ncccc5c4)c3n2)nc1` [Compound 257], the IC50 is 100 to 1000 nM.

In the case of `CCCn1cc(-c2cnc3nnn(Cc4ccc5nccn5c4)c3n2)cn1` [Compound 47], the half-inhibitory concentration (IC50) is 1 to 100 nM.

For `COCc1cnc2ccc([C@H](C)n3nnc4ncc(-c5cnn(C)c5)nc43)cn12` [Compound 324], the IC50 lay in the range of 1 to 100 nM.

On to `CCn1cc(-c2ccc3nnn(Cc4n[nH]c5ncccc45)c3n2)cn1` [Compound 137], for which the IC50 fell in the range of 1 to 100 nM.

With `CC(c1cc2[nH]ncc2s1)n1nnc2ncc(-c3cnn(C)c3)nc21` (centres unmarked) [Compound 299], the concentration for half-maximal inhibition (IC50) lay in the range of 100 to 1000 nM.

Take `OCCn1cc(-c2ccc3nnn(Cc4cc5cnccc5s4)c3n2)cn1` [Compound 74]: the IC50 lay in the range of 100 to 1000 nM.

With `OC1COCC1Nc1ccnc(Nc2cnc3nnn(Cc4ccc5ncccc5c4)c3n2)c1` (centres unmarked) [Compound 226], the IC50 lay within 1 to 100 nM.

Take `N#Cc1ccc(-c2cnc3nnn(Cc4cc5[nH]ncc5s4)c3n2)cn1` [Compound 282]: the IC50 is 1 to 100 nM.

For `Cc1cccc(N(C)c2cnc3nnn(Cc4ccc5ncccc5c4)c3n2)n1` [Compound 154], the IC50 lay within 100 to 1000 nM.

`Cc1ccc(Nc2cnc3nnn(Cc4ccc5ncccc5c4)c3n2)cn1` [Compound 155]: the IC50 was in the range of 1 to 100 nM.

`CN(C)Cc1ccc(-c2ccc3nnn(Cc4ccc5ncccc5c4)c3n2)s1` [Compound 105]: the IC50 fell in the range of 100 to 1000 nM.

Take `COCCn1cc(-c2cnc3nnn(Cc4ccc5nccn5c4)c3n2)cn1` [Compound 58]: the IC50 lay within 1 to 100 nM.

`OCCn1cc(-c2ccc3nnn(Cc4ccc5nccn5n4)c3n2)cn1` [Compound 273]: the 50% inhibitory concentration (IC50) was in the range of 100 to 1000 nM.

A word on the IC50: it is the concentration that inhibits the measured activity by half.
